Results published in patent US6673791B2, “Non-nucleoside reverse transcriptase inhibitors” (Boehringer Ingelheim (Canada) Ltd., priority 2001, dated 2004).
Like-named read-outs stand apart in the source and are kept apart here.

Legend:
[1] = system: WT RT (HIV-1 wild type strain); test: EC50 assay, WT RT strain; type: cell-based
Excerpt: (§1) Reverse TranscriptASE (RT) Assays
(§2) The assays are as described in WO 01/96338A1, the contents of which are hereby incorporated herein. The results are listed in Tables 8 as IC50(nM) and EC50(nM).

[2] = system: K103N/Y181C (HIV-1 double mutant strain); test: EC50 assay, K103N/Y181C strain; type: cell-based
Excerpt: as §1, §2

[3] = target: T1, V106A mutant RT (HIV-1 RT) (Human immunodeficiency virus type 1 group M subtype B, UniProt P03366, V705A); test: biochemical
T1 construct: mutations that occur in the reverse transcriptase segment of the pol gene
Excerpt: (§3) Based upon testing of these compounds, as described below, it is known that they inhibit the RNA-dependent DNA polymerase activity of HIV-1 RT. […] Utilising the Reverse Transcriptase (RT) Assay described below, compounds can be tested for their ability to inhibit the RNA-dependent DNA polymerase activity of HIV-1 RT. Certain specific compounds described in the Examples which appear below, were so tested. The results of this testing appear in Table 4 as IC50 (nM) and Table 5 as EC50 (nM).
as §1, §2

[4] = target: T2, Y188L mutant RT (HIV-1 RT) (Human immunodeficiency virus type 1 group M subtype B, UniProt P03366, Y787L); test: biochemical
T2 construct: mutations that occur in the reverse transcriptase segment of the pol gene
Excerpt: as §3, §1, §2

[5] = target: T3, K103N/Y181C double mutant RT (HIV-1 RT) (Human immunodeficiency virus type 1 group M subtype B, UniProt P03366, K702N/Y780C); test: biochemical
T3 construct: mutations that occur in the reverse transcriptase segment of the pol gene
Excerpt: as §3, §1, §2

[6] = target: T4, WT RT (HIV-1 RT) (Human immunodeficiency virus type 1 group M subtype B, UniProt P03366); test: biochemical
T4 construct: mutations that occur in the reverse transcriptase segment of the pol gene
Excerpt: as §3, §1, §2

[7] = read-out: IC50 K103N/Y181C, K103N/Y181C double mutant RT
[8] = read-out: IC50 WT RT, wild type RT
[9] = Human immunodeficiency virus 1, read-out: EC50 WT RT (nM)
[10] = Human immunodeficiency virus 1, read-out: EC50 K103N/Y181C (nM), K103N/Y181C double mutant
[11] = K103N/Y181C double mutant RT, read-out: IC50 K103N/Y181C
[12] = wild type RT, read-out: IC50 WT RT

Structure (SMILES)	IC50 ([4]; IC50 Y188L (nM))	IC50 ([3]; IC50 V106A (nM))	IC50 [5]	IC50 [6]	other results
CCN1c2ncc(CCOc3ccc(/C=C/C(=O)O)c4ccccc34)cc2C(=O)N(C)c2ccc(F)nc21 [Entry 2014]	> 1000 nM	–	–	–	EC50 ([1]; read-out: EC50 WT RT, wild type): < 100 nM; EC50 ([2]; read-out: EC50 K103N/Y181C, K103N/Y181C double mutant): 100 to 1000 nM; IC50 ([3]; read-out: IC50 V106A): 100 to 1000 nM; IC50 [5, 7]: 0.1 to 1 µM; IC50 [6, 8]: < 0.1 µM
CCN1c2ncc(CCOc3ccc(C(C)CC(=O)O)c4ccccc34)cc2C(=O)N(C)c2cccnc21 (stereo not shown) [Entry 1051]	> 1000 nM	> 1000 nM	0.1 to 1 µM	< 0.1 µM	EC50 [1, 9]: < 100 nM; EC50 [2, 10]: < 100 nM
CCN1c2ncc(CCOc3ccc(C(=O)O)c4ccccc34)cc2C(=O)N(C)c2ccc(Cl)nc21 [Entry 1002]	100 to 1000 nM	100 to 1000 nM	< 0.1 µM	< 0.1 µM	EC50 [1, 9]: < 100 nM; EC50 [2, 10]: < 100 nM
CCN1c2ncc(CCOc3ccc(CCC(=O)NN)c4ccccc34)cc2C(=O)N(C)c2cccnc21 [Entry 2020]	–	–	–	–	EC50 ([1]; wild type, read-out: EC50 WT RT): < 100 nM; EC50 ([2]; K103N/Y181C double mutant, read-out: EC50 K103N/Y181C): 100 to 1000 nM; IC50 ([3]; read-out: IC50 V106A): > 1000 nM; IC50 ([4]; read-out: IC50 Y188L): > 1000 nM; IC50 [5, 11]: 0.1 to 1 µM; IC50 [6, 12]: < 0.1 µM
CCN1c2ncc(CCOc3ccc(/C=C(\C)C(=O)O)c4ccccc34)cc2C(=O)Nc2c(C)cc(F)nc21 [Entry 1041]	> 1000 nM	100 to 1000 nM	0.1 to 1 µM	< 0.1 µM	–
CCN1c2ncc(CCOc3ccc(C(=O)O)c4ccccc34)cc2C(=O)Nc2c(C)cc(F)nc21 [Entry 1004]	> 1000 nM	100 to 1000 nM	0.1 to 1 µM	< 0.1 µM	–
CCN1c2ncc(CCOc3ccc(CC(C)C(=O)O)c4ccccc34)cc2C(=O)N(C)c2ccc(C)nc21 (stereo not shown) [Entry 1045]	> 1000 nM	> 1000 nM	0.1 to 1 µM	< 0.1 µM	–
CCN1c2ncc(CCOc3ccc(CC(=O)NN)c4ccccc34)cc2C(=O)N(C)c2ccc(NN)nc21 [Entry 1017]	–	–	–	< 0.1 µM	–
CCN1c2ncc(CCOc3ccc(CC(=O)O)c4c3CCCC4)cc2C(=O)N(C)c2cccnc21 [Entry 5006]	> 1000 nM	> 1000 nM	0.1 to 1 µM	< 0.1 µM	–
CCN1c2ncc(CCOc3ccc(/C=C/C(=O)O)c4ccccc34)cc2C(=O)N(C)c2cccnc21 [Entry 2013]	> 1000 nM	–	–	–	IC50 ([3]; read-out: IC50 V106A): > 1000 nM; IC50 [5, 7]: 0.1 to 1 µM
CCN1c2ncc(CCOc3ccc(CC(C)C(=O)O)c4ccccc34)cc2C(=O)N(C)c2ccc(F)nc21 (stereo not shown) [Entry 1043]	> 1000 nM	> 1000 nM	0.1 to 1 µM	< 0.1 µM	–
CCN1c2ncc(CCOc3ccc(C(=O)O)c4ccccc34)cc2C(=O)N(C)c2ccc(C)nc21 [Entry 1003]	> 1000 nM	> 1000 nM	0.1 to 1 µM	< 0.1 µM	–
CCN1c2ncc(CCOc3ccc(CC(C)C(=O)O)c4ccccc34)cc2C(=O)Nc2c(C)cc(Cl)nc21 (stereo not shown) [Entry 1047]	> 1000 nM	100 to 1000 nM	0.1 to 1 µM	< 0.1 µM	–
CCN1c2ncc(CCOc3ccc(CCC(=O)O)c4ccccc34)cc2C(=O)N(C)c2ccc(C)nc21 [Entry 1026]	> 1000 nM	> 1000 nM	0.1 to 1 µM	< 0.1 µM	–
CCN1c2ncc(CCOc3cccc4c3CCCN4C(=O)CC(=O)O)cc2C(=O)N(C)c2cccnc21 [Entry 6002]	–	–	–	< 0.1 µM	–
CCN1c2ncc(CCOc3ccc(CC(N)=O)c4ccccc34)cc2C(=O)N(C)c2cccnc21 [Entry 1018]	> 1000 nM	100 to 1000 nM	< 0.1 µM	< 0.1 µM	–
CCN1c2ncc(CCOc3ccc(CCC(=O)O)c4ccccc34)cc2C(=O)Nc2c(C)ccnc21 [Entry 1024]	> 1000 nM	100 to 1000 nM	> 1 µM	< 0.1 µM	–
CCN1c2ncc(CCOc3ccc(S(=O)(=O)NC(C)=O)c4ccccc34)cc2C(=O)N(C)c2cccnc21 [Entry 2005]	–	–	–	–	IC50 ([3]; read-out: IC50 V106A): > 1000 nM; IC50 ([4]; read-out: IC50 Y188L): > 1000 nM; IC50 [5, 11]: 0.1 to 1 µM; IC50 [6, 12]: < 0.1 µM
CCN1c2ncc(CCOc3ccc(C(=O)O)c4c3CCN(C(C)=O)C4)cc2C(=O)N(C)c2cccnc21 [Entry 7004]	> 1000 nM	> 1000 nM	0.1 to 1 µM	< 0.1 µM	EC50 [1, 9]: 100 to 1000 nM
CCN1c2ncc(CCOc3ccc(/C=C/C(=O)O)c4ccccc34)cc2C(=O)Nc2c(C)cc(F)nc21 [Entry 2015]	–	100 to 1000 nM	–	–	IC50 ([4]; read-out: IC50 Y188L): > 1000 nM; IC50 [5, 7]: 0.1 to 1 µM; IC50 [6, 8]: < 0.1 µM
